Assay results reported in patent US5760214A, “Bone resorption inhibition/osteogenesis promotion compound” (Iskra Industry Co., Ltd., priority 1993, dated 1998).

Columns and labels:
[1] = test system: synthesis of bone proteins; conditions: cell level, U.S. Pat. No. 4,925,833; cited from earlier work
[2] = Intracorporeal Distribution of Compound (Experiment 1); assay type: in vivo; conditions: mice, 20 μCi/20 g; for drug concentration in blood: i.v. tail vein, 3H, mean; for drug quantity in tissue: brain / drug quantity in tissue: muscle / drug quantity in tissue: stomach: i.v.
Experimental: The compound 1-3 produced in Synthesis Example 1-3 was subjected to radioactive labelling by ^3 H (0.34 mCi/mg), and was injected into the vein of the tail of mice in a dosage of 20 μCi/20 g. Groups of mice each comprising five mice were killed at 1 minute, 5 minutes, 15 minutes, 30 minutes, 1 hour, 4 hours, 6 hours, 24 hours, 48 hours and 72 hours after the injection, and 50 μl of the blood was collected from the eye socket of each mouse. Further, the heart, the womb, the small intestine, bones (thighbone), etc., were collected from each mouse, and 50 mg of the tissue (50 μl for the blood) was placed into a plastic test tube. Further, 0.2 ml of perchloric acid, 0.4 ml of hydrogen peroxide and a drop of n-octyl alcohol were put into the test tube, and the test tube was left in a water bath at 75° C. for 45 minutes. Next, 0.1 ml of this digestive fluid was sampled and was placed into a bottle storing a scintillating solution and furthermore, 5 ml of 0.5% scintillating solution was mixed. After the solution became transparent, it was placed into an FJ2105 liquid scintillation counter so as to measure radioactivity and to determine cpm of the sample. Separately, dpm of 52 samples obtained from four groups of animals was measured (External Standard Method).
The quantity of the drug inside the tissue was determined in the following way.
Drug quantity in tissue (cpm/mg)=(sample cpm).div.(digested tissue quantity (mg))
Drug quantity in tissue (μg/mg)=(sample cpm/mg×6)[…](count efficiency (E)×2.22×10^7 ×0.34 mCi/mg (specific radioactivity))

mice = assay: Acute Toxicity Test (Experiment 2); assay type: in vivo, mice (Kunming species); conditions: for No. of dead animals: of 10 animals
Experimental: The compound 1-3 was pale yellow crystalline poweder and its lot number was 930113. The solution was a pale yellow transparent solution, and has a concentration of 50 mg/ml and a pH of about 5. It was offered from Osteoporosis Research Laboratory, Department of Pharmacy, West China University of Medical Science School (WCUMS).
Kunming species mice, health: first class, weight: 18 to 21 g, half male and half female. The mice were offered from Experimental Animal Center of WCUSM.
Four to five dose groups were prepared in equal ratios (1:0.7 to 0.8) within the LD range of 0 to 100% obtained by preliminary tests. The drug for peroral administration was prepared by suspending the solid compound 1-3 in 1% CMCNa2 to form a suspension. For injection, drug solutions having different concentrations were prepared by dissolving the compound 1-3 in physiological saline solution by a low specific gravity dilution method. The animals were starved (but without limiting water), and 20 hours later, ten mice were grouped at random into each group irrespective of their sex and body weight. The drug was dosed once a day in a dose of 0.2 ml/10 g and the animals were inspected. Dead animals were dissected and any change of the morbid state was examined with by the naked eye.
After the chemical was dosed once in the maximum concentration and in the maximum capacity for peroral administration to 20 mice (10 males and 10 females), the animals were examined for 7 days. […] The maximum tolerance dose (MTD) was >6 g/kg.

[3] = test system: osteoblast originating from the calvaria of Whister rats; assay: Osteogenesis Test (1) (Experiment 3), von Kossa dyeing; assay type: cell-based; conditions: 10^-8 M, addition in calcification period
Experimental: A first generation incubation system of the osteoblast originating from the calvaria of Whister rats (female, 6-months' age) was used as the test cells. After the start of incubation, the sample drug (compound 1-3) was added once a day to the medium in a dose of 10^-6 M, 10^-8 M or 10^-9 M on the second and third days (propagation period). Alternatively, the compound 1-3 in the amount described above was added once a day to the medium for 4 days (calcification period) from the seventh day from the start of incubation. On the fourteenth day from the start of incubation, the cells were subjected to von Kossa dyeing and detection of phosphates was carried out. The area of the bone knots which were dyed to brown was confirmed by the naked eye and was used as the index for osteogenesis.

[4] = peroral, maximum concentration, single dose, 7 days

## CN(C)[C@@H]1C(O)=C(C(N)=O)C(=O)[C@@]2(O)C(O)=C3C(=O)c4c(O)cccc4[C@@](C)(O)[C@H]3C[C@@H]12 [tetracycline]
[1]
  synthesis of bone proteins: promotes the synthesis of bone proteins

## CN(C)C1C(=O)C(C(=O)NCN2CCN(CCOc3ccc4c(c3)CCC3C4CCC4(C)C(=O)CCC34)CC2)=C(O)C2(O)C(=O)C3=C(O)c4c(O)cccc4C(C)(O)C3CC12 (stereo not shown) [Compound 1-3, N-4-[17-oxy-estra-1,3,5 (10)-trien-3-oxyethyl]-piperazine-1-methylene-tetracycline]
[2]; 1 min
  drug concentration in blood: 8665 cpm/50 μl
  drug quantity in tissue: brain: 20 cpm/mg tissue
  drug quantity in tissue: muscle: 28 cpm/mg tissue
  drug quantity in tissue: stomach: 30 cpm/mg tissue
[2]; 5 min
  drug concentration in blood: 5238 cpm/50 μl
  drug quantity in tissue: brain: 13 cpm/mg tissue
  drug quantity in tissue: muscle: 32 cpm/mg tissue
  drug quantity in tissue: stomach: 39 cpm/mg tissue
[2]; 15 min
  drug concentration in blood: 2638 cpm/50 μl
  drug quantity in tissue: brain: 9 cpm/mg tissue
  drug quantity in tissue: muscle: 15 cpm/mg tissue
  drug quantity in tissue: stomach: 28 cpm/mg tissue
[2]; 30 min
  drug concentration in blood: 2347 cpm/50 μl
  drug quantity in tissue: brain: 10 cpm/mg tissue
  drug quantity in tissue: muscle: 22 cpm/mg tissue
  drug quantity in tissue: stomach: 32 cpm/mg tissue
[2]; 1 hr
  drug concentration in blood: 952 cpm/50 μl
[2]; 4 hr
  drug concentration in blood: 659 cpm/50 μl
[2]; 6 hr
  drug concentration in blood: 715 cpm/50 μl
[2]; 24 hr
  drug concentration in blood: 523 cpm/50 μl
[2]; 48 hr
  drug concentration in blood: 272 cpm/50 μl
[2]; 72 hr
  drug concentration in blood: 190 cpm/50 μl
[2]; 1 hour
  drug quantity in tissue: brain: 7 cpm/mg tissue
  drug quantity in tissue: muscle: 11 cpm/mg tissue
  drug quantity in tissue: stomach: 12 cpm/mg tissue
[2]; 4 hours
  drug quantity in tissue: brain: 7 cpm/mg tissue
  drug quantity in tissue: muscle: 7 cpm/mg tissue
  drug quantity in tissue: stomach: 10 cpm/mg tissue
[2]; 6 hours
  drug quantity in tissue: brain: 6 cpm/mg tissue
  drug quantity in tissue: muscle: 6 cpm/mg tissue
  drug quantity in tissue: stomach: 9 cpm/mg tissue
[2]; 24 hours
  drug quantity in tissue: brain: 4 cpm/mg tissue
  drug quantity in tissue: muscle: 4 cpm/mg tissue
  drug quantity in tissue: stomach: 6 cpm/mg tissue
[2]; 48 hours
  drug quantity in tissue: brain: 4 cpm/mg tissue
  drug quantity in tissue: muscle: 5 cpm/mg tissue
  drug quantity in tissue: stomach: 4 cpm/mg tissue
[2]; 72 hours
  drug quantity in tissue: brain: 3 cpm/mg tissue
  drug quantity in tissue: muscle: 4 cpm/mg tissue
  drug quantity in tissue: stomach: 3 cpm/mg tissue
mice
  toxicity: its toxicity was extremely low
mice; after intravenous injection
  activity / behaviour after injection: activity of the mice decreased and then the mice started jumping and went into spasm
  difference between the sexes of the dead animals: No difference was found between the sexes of the dead animals
  eyeball, incontinence: The eyeball protruded and changed to white, and incontinence of urine and feces was observed
  time of death of poisoned animals: the major proportion of the poisoned animals died instantly, an extremely few survived were also dead within 24 hours
mice; dead animals, naked eye
  change of the morbid state in dissection: any change of the morbid state could not at all be observed by the naked eye
mice; i.v. tail vein, 102.4 mg/kg
  death ratio: 0%
  provit unit (Y): 2.60
  No. of dead animals: 0
mice; i.v. tail vein, 128 mg/kg
  death ratio: 20%
  provit unit (Y): 4.16
  No. of dead animals: 2
mice; i.v. tail vein, 160 mg/kg
  death ratio: 80%
  provit unit (Y): 5.84
  No. of dead animals: 8
mice; i.v. tail vein, 200 mg/kg
  death ratio: 100%
  provit unit (Y): 7.40
  No. of dead animals: 10
mice; i.v. tail vein, 250 mg/kg
  death ratio: 100%
  No. of dead animals: 10
mice; i.v. tail vein, Bliss method
  LD50: 143.11 mg/kg
  LD50, range of 95% reliability limit: 132.95 to 154.05 mg/kg
mice; intravenous injection, tail vein
  LD50: 143.11 mg/kg
mice; [4]
  abnormality in the mice: no abnormality was found in the mice
  death of mice: no mouse was dead
[3]
  Osteogenesis promotion function, calcification period: .uparw. .uparw.
